From publication PMC8155809 (The Journal of General Physiology, 2021)

Assays:
WT TREK-2 = molecular target: T1, WT TREK-2 (Homo sapiens, UniProt P57789); assay: Single-channel recordings of WT TREK-2 in excised patches from HEK293 cells; type: cell-based
T1 construct: full-length WT TREK-2 channels, we examined its effects on the mean open time of TREK-2 channels expressed in HEK293 cells; expressed in transfected cells; host or cells: HEK293 cells, transient transfection with pcDNA3
T1 sequence (P57789 1-543 isoform P57789-4): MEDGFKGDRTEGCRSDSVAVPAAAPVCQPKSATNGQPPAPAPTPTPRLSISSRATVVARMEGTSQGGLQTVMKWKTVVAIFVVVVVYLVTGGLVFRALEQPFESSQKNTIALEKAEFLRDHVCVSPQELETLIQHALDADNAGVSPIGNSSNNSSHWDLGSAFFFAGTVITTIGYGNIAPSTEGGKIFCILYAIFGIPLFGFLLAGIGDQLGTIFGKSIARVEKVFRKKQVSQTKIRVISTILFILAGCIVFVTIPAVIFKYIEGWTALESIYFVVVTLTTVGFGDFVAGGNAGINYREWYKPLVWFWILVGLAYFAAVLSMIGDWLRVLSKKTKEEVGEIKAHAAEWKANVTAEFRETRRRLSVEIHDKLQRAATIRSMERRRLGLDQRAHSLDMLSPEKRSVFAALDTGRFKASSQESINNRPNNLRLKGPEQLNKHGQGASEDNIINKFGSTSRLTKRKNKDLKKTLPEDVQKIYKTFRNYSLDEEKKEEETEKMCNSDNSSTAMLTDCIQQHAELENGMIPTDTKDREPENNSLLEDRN
Experimental: (§1) Full-length human TREK-2 isoform 3 (NCBI accession no. NP_612191) was used throughout this study and was subcloned into the pFAW vector for expression in oocytes. The truncated construct used to generate protein (TREK-2ΔN/ΔC) is identical to that used previously to obtain crystal structures ([Dong et al., 2015]); it contains a deletion of 71 residues at the N terminus and 213 residues at the C terminus. […] Desamino chloro-fluoxetine (Toronto Research Chemicals) was dissolved in chloroform and diluted to working concentrations on the day of experimenting (maximum final concentration was 0.01%).
HEK293 cells were cultured in DMEM (Sigma) containing 10% FBS (Life Technologies), 3 mM glucose, and 2 mM glutamine at 37°C in a humidified atmosphere of 5% CO2/[…] at 37°C. Cells were transiently transfected with 0.2 µg channel pcDNA3 per dish using FuGENE 6 according to the manufacturer’s instructions. Cells were used 1–2 d after transfection.
(§2) For currents recorded in Xenopus laevis oocytes, giant-patch electrodes were pulled from thick-walled borosilicate glass and polished to give pipette resistances of ∼0.3–0.5 MΩ when filled with patch solution. Pipette solution contained (in mM) 116 NMDG, 4 KCl, 1 MgCl2, 3.6 CaCl2, and 10 HEPES (pH 7.4), while the bath solution contained (in mM) 120 KCl, 1 NaCl, 2 EGTA, and 10 HEPES (pH 7.3). Patches were perfused via a gravity-flow perfusion system and a HEKA EPC 10 USB single computer–controlled amplifier was used and currents recorded using a Patchmaster v2 × 90.5 (HEKA Electronics), filtered at 1 kHz, and sampled at 10 kHz. For currents recorded in HEK293 cells, patch electrodes were pulled from thick-walled borosilicate glass and polished to give pipette resistances of ∼3–5 MΩ when filled with patch solution. The currents were recorded from excised patches with both intracellular and extracellular solution containing 200 mM KCl and 10 mM HEPES (pH 6.0 with KOH). Patches were perfused via a gravity-flow perfusion system. Data were acquired with pClamp and recorded using an Axopatch 200B (Molecular Devices), filtered at 5 kHz, and sampled at 200 kHz. Single-channel currents were analyzed in an identical manner to those obtained from bilayers (see above).

human TREK-2 = molecular target: T2, human TREK-2 (Homo sapiens, UniProt P57789); assay: Macroscopic TREK-2 currents in giant excised patches from Xenopus oocytes; type: cell-based
T2 construct: expressed in transfected cells; host or cells: Xenopus laevis oocytes injected with in vitro transcribed mRNA (pFAW vector)
T2 sequence (P57789 1-543 isoform P57789-4): T1 sequence (P57789 1-543 isoform P57789-4)
Experimental: as §1
Oocytes were prepared for injection of mRNA by collagenase digestion followed by manual defolliculation and stored in ND96 solution that contained (in mM) 96 NaCl, 2 KCl, 1.8 CaCl2, 1 MgCl2, and 10 HEPES (pH 7.4) and was supplemented with 2.5 mM sodium pyruvate 50 µg/ml gentamycin, 50 µg/ml tetracycline, 50 µg/ml ciprofloxacin, and 100 µg/ml amikacin. Cells were injected with 1–4 ng mRNA up to 4 d after isolation. In vitro transcription of mRNA was done using the Amplicap SP6 Kit (Cambio). Experiments were performed 12–24 h after injection at room temperature (22°C unless otherwise indicated). For measurement and comparison of basal whole-cell currents, oocytes were injected with 4 ng RNA and recorded exactly 24 h after injection.
as §2
The macroscopic concentration–inhibition relationships in Figs. 1 and 2 were fitted with a modified Hill equation:
I/I0=a+1−a/1+([X]/IC50)^h, (1) where I and IO are the currents in the presence and absence of inhibitor, respectively, [X] is the concentration of inhibitor, IC50 is the inhibitor concentration at which the inhibition is half maximal, h is the Hill coefficient, and a is the fraction of unblockable current; a = 0, except where indicated in the legend to Fig. 1.
The macroscopic concentration–activation relationships in Fig. 1 E were fitted with a modified Hill equation: I/I0=a+(1−a)([X]/IC50)^h/1+([X]/IC50)^h, (2) where I and IO are the currents in the presence and absence of agonist, respectively, [X] is the concentration of agonist, IC50 is the agonist concentration at which the activation is half maximal, h is the Hill coefficient, and a is the fraction of initial current.

FC(F)(F)c1ccc(O[C@@H](CCCl)c2ccccc2)cc1 [desamino chloro-fluoxetine, Desamino chloro-fluoxetine]
PO (single-channel open probability) (WT TREK-2; 10 µM, −40 mV): 0.04 | reduction in γ (single-channel current amplitude) (WT TREK-2; 10 µM, −40 mV (Fig. 6B)): 15 ± 5% | reduction of channel Po (WT TREK-2; 10 µM, −40 mV (Fig. 6B)): 75 ± 0.05%

c1ccc(-c2nn[nH]n2)c(Nc2cccc3c2CCCC3)c1 [BL1249]
h (Hill coefficient), BL1249 activation (human TREK-2; BL1249 on its own): 1.9 | h (Hill coefficient), BL1249 activation (human TREK-2; in the presence of NFx): 1.4

CS(=O)(=O)Nc1ccc(C(=O)NCc2ccc(Cl)cc2Cl)cc1 [ML335]
mean Po (WT TREK-2; 100 µM ML335, absence of NFx, −40 mV): 0.69 ± 0.2
